US11834453B2, “Substituted pyrimido[5,4-d]pyrimidines as HER2 inhibitors” (Array BioPharma Inc., priority 2020, dated 2023)

How the values were obtained:
[1] = molecular target: ErbB2 WT (Homo sapiens (Human), UniProt P04626); assay: ErbB enzyme assay (CisBio HTRF KinEASE-TK), Assay 2; assay type: biochemical
How it was run: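 Readout is HTRF KinEASE-TK, using Sa-XL665 and cryptate antibody for 1 h at 22 °C, as percent of control between DMSO-only (100) and pre-quenched (0) reactions. The kinase reaction runs 30 min at 22 °C with 1 mM ATP and 250 nM biotinylated TK substrate, in HEPES pH 7.4 with MgCl2 and 2% DMSO.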

[2] = molecular target: EGFR wild type (EGFR WT) (Homo sapiens (Human), UniProt P00533); assay: Cellular phosphorylation assay, EGF-stimulated EGFR phosphorylation in engineered NIH 3T3 cells, Phospho-EGFR DuoSet IC ELISA, Assay 5; assay type: cell-based
How it was run: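 Phospho-EGFR ELISA on lysates of engineered NIH 3T3 EGFR WT cells, IC50 derived from concentration curves. Cells plated at 20,000/well overnight, given compound dilutions 1 h at 37 °C, then rEGF 100 ng/ml for a further 10 min before lysis.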

[3] = molecular target: ErbB2 insYVMA (HER2-YVMA, SEQ ID NO: 2) (Homo sapiens, UniProt P04626, INS775YVMA/P1170A); assay: biochemical; conditions: ErbB2 insYVMA enzyme assay; read-out: Assay 1 IC50
[4] = molecular target: MDR1 (P-gp) (Homo sapiens (Human), UniProt P08183); assay: MDR1 transfected MDCKII canine Mdr1 knockout permeability/efflux, Assay 7; conditions: dog, MDCK-MDR1
[5] = molecular target: BCRP (Homo sapiens (Human), UniProt Q9UNQ0); assay: BCRP transfected MDCKII canine Mdr1 knockout permeability/efflux, Assay 9; conditions: dog
Procedure: BCRP transfected MDCKII cells (Assay 8) and BCRP transfected MDCKII canine Mdr1 knockout cells (Assay 9) were cultured and plated according to manufacturer's recommendations.
Both positive and negative controls were used to assess functionality of P-gp or BCRP efflux in the assays. Stock solutions for assay controls and the test article were prepared in DMSO for final test concentration of 1 μM. Final organic concentration in the assay was 1%. All dosing solutions contained 10 μM lucifer yellow to monitor MDCKII cell monolayer integrity.
For the apical to basolateral determination (A to B), 75 μL of the test article in transport buffer were added to the apical side of the individual transwells and 250 μL of basolateral media, without compound or lucifer yellow, were added to each well. For the basolateral to apical determination (B to A), 250 μL of test article in transport buffer were added to each well and 75 μL transport buffer, without compound or lucifer yellow, were added to each transwell. All tests were performed in triplicate, and each compound was tested for both apical to basolateral and basolateral to apical transport. The plates were incubated for 2 hours on a Lab-Line Instruments Titer Orbital Shaker (VWR, West Chester, PA) at 50 rpm and 37° C. with 5% CO2. All culture plates were removed from the incubator, 50 μL of media were removed from the apical and basolateral portion of each well, and added to 150 μL of 1 μM labetalol in 2:1 acetonitrile (ACN): H2O, v/v.
The plates were read using a Molecular Devices (Sunnyvale, CA) Gemini Fluorometer to evaluate the lucifer yellow concentrations at excitation/emission wavelengths of 425/535 nm. […] The plates were sealed, and the contents of each well analyzed by LC MS/MS. The compound concentrations were determined from the ratio of the peak areas of the compound to the internal standard (labetalol) in comparison to the dosing solution.
A MDS Sciex API 4000 (Applied Biosystems, Foster City, CA) mass spectrometer was used for detection of the analytes in the ion spray positive mode. Analyte responses were measured by multiple reaction monitoring (“MRM”) of transitions unique to each compound (the protonated precursor ion and selected product ions for each test article and m/z 329 to m/z 162 for labetalol, the internal standard.
The total run time, including re-equilibration, for a single injection was 1.2 minutes. […] The total run time, including re-equilibration, for a single injection was 0.61 minutes.
An efflux ratio is calculated from the mean apical to basolateral (A-B) Papp data and basolateral to apical (B-A) Papp data: Efflux ratio=Papp(B−A)/Papp(A−B)

[6] = molecular target: ErbB2 with Exon 20 YVMA insertion (HER2-YVMA) (Homo sapiens (Human), UniProt P04626, INS775YVMA); assay: Cellular phosphorylation assay, constitutive ErbB2 phosphorylation (Y1196) in engineered NIH 3T3 cells, Assay 4; assay type: cell-based
How it was run: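 In-cell Western in NIH 3T3 cells carrying ErbB2 exon 20 YVMA insertion, with no ligand stimulation. One hour compound exposure at 37 °C before fixation and anti-pY1196 plus GAPDH staining with dual-wavelength fluorescence. IC50 derived after GAPDH normalization.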

[7] = molecular target: EGFR (Homo sapiens (Human), UniProt P00533); assay: ErbB enzyme assay (CisBio HTRF KinEASE-TK), Assay 3; assay type: biochemical
How it was run: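 First, enzyme was reacted with compound, 1 mM ATP and 250 nM biotinylated tyrosine-kinase peptide for 30 min at 22 °C at pH 7.4. Next, streptavidin-XL665 and cryptate antibody were added for 1 h. Finally, HTRF ratios were converted to POC and fitted to yield IC50.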

[8] = Assay 9 Pe Ratio, efflux ratio Papp(B-A)/Papp(A-B), BCRP transfected MDCKII canine Mdr1 knockout

MDR1 (P-gp), sequence (P08183 whole entry): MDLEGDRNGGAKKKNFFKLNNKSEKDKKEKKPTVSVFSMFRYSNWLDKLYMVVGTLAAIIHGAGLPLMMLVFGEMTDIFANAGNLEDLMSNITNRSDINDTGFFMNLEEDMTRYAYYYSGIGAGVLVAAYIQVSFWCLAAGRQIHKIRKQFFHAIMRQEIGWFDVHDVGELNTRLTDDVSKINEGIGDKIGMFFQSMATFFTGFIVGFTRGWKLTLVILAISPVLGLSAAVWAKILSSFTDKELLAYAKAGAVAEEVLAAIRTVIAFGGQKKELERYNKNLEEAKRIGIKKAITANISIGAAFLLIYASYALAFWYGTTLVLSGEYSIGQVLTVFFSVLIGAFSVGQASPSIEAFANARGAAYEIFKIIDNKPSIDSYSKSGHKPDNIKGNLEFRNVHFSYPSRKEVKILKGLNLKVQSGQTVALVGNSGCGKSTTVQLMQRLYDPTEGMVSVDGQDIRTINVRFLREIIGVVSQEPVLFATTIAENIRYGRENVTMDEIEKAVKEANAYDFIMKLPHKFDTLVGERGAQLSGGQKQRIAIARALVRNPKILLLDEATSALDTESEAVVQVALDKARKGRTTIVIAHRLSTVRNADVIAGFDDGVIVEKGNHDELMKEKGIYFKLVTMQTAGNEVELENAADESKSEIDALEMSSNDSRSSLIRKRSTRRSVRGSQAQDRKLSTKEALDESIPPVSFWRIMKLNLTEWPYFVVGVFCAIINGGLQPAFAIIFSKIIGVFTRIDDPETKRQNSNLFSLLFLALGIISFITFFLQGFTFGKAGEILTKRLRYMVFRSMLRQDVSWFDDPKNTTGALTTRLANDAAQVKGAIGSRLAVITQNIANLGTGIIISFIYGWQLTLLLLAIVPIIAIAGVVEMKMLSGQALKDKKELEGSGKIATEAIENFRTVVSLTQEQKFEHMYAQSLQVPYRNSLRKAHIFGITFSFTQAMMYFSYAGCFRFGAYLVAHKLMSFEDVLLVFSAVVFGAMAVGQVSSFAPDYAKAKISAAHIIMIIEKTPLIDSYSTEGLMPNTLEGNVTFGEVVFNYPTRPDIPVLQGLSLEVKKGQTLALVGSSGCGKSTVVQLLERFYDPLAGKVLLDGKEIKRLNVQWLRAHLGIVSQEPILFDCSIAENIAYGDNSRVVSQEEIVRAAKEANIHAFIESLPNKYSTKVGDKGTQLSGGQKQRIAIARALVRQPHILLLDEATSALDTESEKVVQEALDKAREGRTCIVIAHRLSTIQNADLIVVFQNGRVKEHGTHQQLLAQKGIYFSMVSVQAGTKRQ
BCRP, sequence (Q9UNQ0 whole entry): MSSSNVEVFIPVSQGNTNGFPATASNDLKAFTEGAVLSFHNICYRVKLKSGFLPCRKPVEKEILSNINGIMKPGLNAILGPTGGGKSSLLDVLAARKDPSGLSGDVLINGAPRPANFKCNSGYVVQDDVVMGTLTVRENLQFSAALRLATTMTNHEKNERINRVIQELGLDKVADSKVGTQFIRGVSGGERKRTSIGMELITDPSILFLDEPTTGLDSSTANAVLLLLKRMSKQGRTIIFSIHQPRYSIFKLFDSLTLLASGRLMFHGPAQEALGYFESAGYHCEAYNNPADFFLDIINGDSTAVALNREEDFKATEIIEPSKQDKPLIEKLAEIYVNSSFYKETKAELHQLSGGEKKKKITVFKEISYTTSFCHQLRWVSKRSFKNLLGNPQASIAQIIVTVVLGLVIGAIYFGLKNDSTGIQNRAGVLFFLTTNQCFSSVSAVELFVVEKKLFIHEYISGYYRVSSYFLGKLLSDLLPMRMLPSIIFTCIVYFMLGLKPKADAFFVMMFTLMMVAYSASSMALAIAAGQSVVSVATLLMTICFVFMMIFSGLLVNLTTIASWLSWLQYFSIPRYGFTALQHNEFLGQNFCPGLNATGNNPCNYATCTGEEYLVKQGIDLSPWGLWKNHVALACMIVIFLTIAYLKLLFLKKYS
ErbB2 with Exon 20 YVMA insertion (HER2-YVMA), sequence (P04626 other isoform, or with tags, fused parts or gaps ins YVMA behind 775): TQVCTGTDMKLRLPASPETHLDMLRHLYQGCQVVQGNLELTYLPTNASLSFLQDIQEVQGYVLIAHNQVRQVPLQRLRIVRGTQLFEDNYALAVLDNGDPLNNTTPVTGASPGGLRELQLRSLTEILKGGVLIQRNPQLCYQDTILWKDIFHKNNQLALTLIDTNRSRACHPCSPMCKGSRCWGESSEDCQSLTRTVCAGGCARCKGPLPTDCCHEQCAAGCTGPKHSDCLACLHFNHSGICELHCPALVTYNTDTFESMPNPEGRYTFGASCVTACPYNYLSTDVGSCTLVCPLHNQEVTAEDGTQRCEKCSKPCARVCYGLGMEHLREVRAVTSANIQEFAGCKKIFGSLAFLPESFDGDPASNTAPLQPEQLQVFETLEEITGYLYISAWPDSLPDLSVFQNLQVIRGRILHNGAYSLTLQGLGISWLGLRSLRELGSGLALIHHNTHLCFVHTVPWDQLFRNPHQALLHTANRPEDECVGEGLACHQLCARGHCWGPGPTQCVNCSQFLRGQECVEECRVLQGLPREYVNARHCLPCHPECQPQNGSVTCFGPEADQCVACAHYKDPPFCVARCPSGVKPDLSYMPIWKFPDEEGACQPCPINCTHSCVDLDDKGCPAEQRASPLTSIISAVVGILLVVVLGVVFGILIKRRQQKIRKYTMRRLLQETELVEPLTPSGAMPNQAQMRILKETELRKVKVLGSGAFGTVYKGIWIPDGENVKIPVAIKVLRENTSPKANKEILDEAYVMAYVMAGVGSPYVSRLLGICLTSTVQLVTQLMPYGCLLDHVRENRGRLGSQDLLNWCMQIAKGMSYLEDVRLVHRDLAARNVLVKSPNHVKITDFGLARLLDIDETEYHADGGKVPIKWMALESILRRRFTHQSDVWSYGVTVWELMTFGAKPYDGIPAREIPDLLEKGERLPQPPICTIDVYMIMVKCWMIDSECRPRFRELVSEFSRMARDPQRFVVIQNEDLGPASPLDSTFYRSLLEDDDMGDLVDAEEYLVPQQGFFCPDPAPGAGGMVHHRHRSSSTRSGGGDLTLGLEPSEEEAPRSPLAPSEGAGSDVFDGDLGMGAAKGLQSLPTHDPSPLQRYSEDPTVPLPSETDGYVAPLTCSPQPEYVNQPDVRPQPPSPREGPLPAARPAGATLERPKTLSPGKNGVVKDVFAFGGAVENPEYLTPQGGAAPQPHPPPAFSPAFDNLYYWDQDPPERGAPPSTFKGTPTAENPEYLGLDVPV
ErbB2 insYVMA (HER2-YVMA, SEQ ID NO: 2), sequence (P04626 with tags, fused parts or gaps INS775YVMA/P1170A limits assumed): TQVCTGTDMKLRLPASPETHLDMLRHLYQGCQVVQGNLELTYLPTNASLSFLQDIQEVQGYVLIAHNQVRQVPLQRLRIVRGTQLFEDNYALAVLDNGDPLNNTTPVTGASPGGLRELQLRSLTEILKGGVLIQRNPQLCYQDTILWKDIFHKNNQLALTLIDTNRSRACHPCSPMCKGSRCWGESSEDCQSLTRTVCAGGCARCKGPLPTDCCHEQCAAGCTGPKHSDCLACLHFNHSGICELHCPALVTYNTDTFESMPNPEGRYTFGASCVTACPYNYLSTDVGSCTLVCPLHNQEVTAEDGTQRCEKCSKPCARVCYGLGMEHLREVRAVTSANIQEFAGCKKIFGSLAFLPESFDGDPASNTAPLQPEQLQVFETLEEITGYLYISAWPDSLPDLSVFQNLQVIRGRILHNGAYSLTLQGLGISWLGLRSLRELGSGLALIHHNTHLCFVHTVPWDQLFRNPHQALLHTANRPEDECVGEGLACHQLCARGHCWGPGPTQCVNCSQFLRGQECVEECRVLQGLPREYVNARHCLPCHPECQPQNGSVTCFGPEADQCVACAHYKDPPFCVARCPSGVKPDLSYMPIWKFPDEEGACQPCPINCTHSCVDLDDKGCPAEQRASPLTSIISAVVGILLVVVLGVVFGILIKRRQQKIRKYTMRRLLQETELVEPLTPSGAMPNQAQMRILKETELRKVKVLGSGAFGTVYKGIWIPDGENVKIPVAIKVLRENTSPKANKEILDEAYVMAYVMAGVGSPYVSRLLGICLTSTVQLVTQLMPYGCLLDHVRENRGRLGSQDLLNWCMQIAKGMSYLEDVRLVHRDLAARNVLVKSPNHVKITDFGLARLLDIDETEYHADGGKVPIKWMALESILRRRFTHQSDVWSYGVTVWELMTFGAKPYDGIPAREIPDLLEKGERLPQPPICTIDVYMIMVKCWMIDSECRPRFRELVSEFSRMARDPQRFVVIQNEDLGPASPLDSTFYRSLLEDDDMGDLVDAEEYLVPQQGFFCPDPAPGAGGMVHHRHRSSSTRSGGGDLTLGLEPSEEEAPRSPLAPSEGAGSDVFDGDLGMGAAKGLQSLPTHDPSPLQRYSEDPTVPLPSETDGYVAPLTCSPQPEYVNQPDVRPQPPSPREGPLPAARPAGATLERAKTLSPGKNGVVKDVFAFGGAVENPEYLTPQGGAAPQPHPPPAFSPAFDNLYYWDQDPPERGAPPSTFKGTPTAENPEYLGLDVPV

| SMILES | IC50 [1] [nM] | IC50 [2] [nM] | IC50 [3] [nM] | efflux ratio at 2 h, 1 μM [4] | efflux ratio at 2 h, 1 μM [5, 8] | IC50 [6] [nM] | IC50 [7] [nM] | efflux ratio at 2 h, 1 μM [5] |
| --- | --- | --- | --- | --- | --- | --- | --- | --- |
| Cc1cc(Nc2ncnc3cnc(N(C)[C@H]4C[C@H](O)C4)nc23)ccc1Oc1ccc2c(c1)ncn2C [Example 186, (1r,3r)-3-(methyl(8-((3-methyl-4-((1-methyl-1H-benzo[d]imidazol-5-yl)oxy)phenyl)amino)pyrimido[5,4-d]pyrimidin-2-yl)amino)cyclobutan-1-ol] | 3.7 | ≥ 5000 | 5.7 | 1.4 | 24.2 | 4.1 | 592 |  |
| FC(F)(F)[C@@H]1CN(c2ncc3ncnc(Nc4ccc(Oc5ccn6ncnc6c5)c(Cl)c4)c3n2)CCN1 [Example 130, (S)—N-(4-([1,2,4]triazolo[1,5-a]pyridin-7-yloxy)-3-chlorophenyl)-6-(3-(trifluoromethyl)piperazin-1-yl)pyrimido[5,4-d]pyrimidin-4-amine] | 36.3 | ≥ 5000 | 41.7 | 1.3 | 1 | 43.3 | 2560 |  |
| Cc1cc(Nc2ncnc3cnc(N4CC[C@@](O)(C(F)F)C4)nc23)ccc1Oc1ccc2c(c1)ncn2C (racemic) [Example 106, rac-(R)-3-(difluoromethyl)-1-(8-((3-methyl-4-((1-methyl-1H-benzo[d]imidazol-5-yl)oxy)phenyl)amino)pyrimido[5,4-d]pyrimidin-2-yl)pyrrolidin-3-ol] | 16.6 | ≥ 5000 | 16.8 | 2.6 | 24.3 | 18.4 | 2840 |  |
| Cc1cc(Nc2ncnc3cnc(N4C[C@H](O)C(F)(F)C4)nc23)c(F)cc1Oc1ccc2c(c1)ncn2C [Example 202, (S)-4,4-difluoro-1-(8-((2-fluoro-5-methyl-4-((1-methyl-1H-benzo[d]imidazol-5-yl)oxy)phenyl)amino)pyrimido[5,4-d]pyrimidin-2-yl)pyrrolidin-3-ol] | 31.1 | ≥ 5000 | 25.7 | 1.2 | 6.4 | 49.2 | ≥ 10000 |  |
| CO[C@H]1CN(c2ncc3ncnc(Nc4ccc(Oc5ccc6c(c5)ncn6C)c(C)c4)c3n2)C[C@H]1O [Example 197, (3R,4S)-4-methoxy-1-(8-((3-methyl-4-((1-methyl-1H-benzo[d]imidazol-5-yl)oxy)phenyl)amino)pyrimido[5,4-d]pyrimidin-2-yl)pyrrolidin-3-ol] | 21 | ≥ 5000 | 14.1 | 1.8 | 35.7 | 44.9 | 8640 |  |
| Cc1cc(Nc2ncnc3cnc(N4CCC(F)(F)C4)nc23)ccc1Oc1ccc2c(c1)ncn2C [Example 299] | 146 | ≥ 5000 | 49.8 | 0.4 | 1.2 | 30.5 | ≥ 10000 |  |
| Cc1cc(Nc2ncnc3cnc(N4CC[C@](C)(O)C4)nc23)ccc1Oc1ccc2c(c1)ncn2C [Example 179, (S)-3-methyl-1-(8-((3-methyl-4-((1-methyl-1H-benzo[d]imidazol-5-yl)oxy)phenyl)amino)pyrimido[5,4-d]pyrimidin-2-yl)pyrrolidin-3-ol] | 12.9 | ≥ 5000 | 10.1 | 1.9 | 15.3 | 28.2 | 3830 |  |
| Cc1cc(Nc2ncnc3cnc(N4CC5(C4)CC(O)(C(F)F)C5)nc23)ccc1Oc1ccc2c(c1)ncn2C [Example 210, 6-(difluoromethyl)-2-(8-((3-methyl-4-((1-methyl-1H-benzo[d]imidazol-5-yl)oxy)phenyl)amino)pyrimido[5,4-d]pyrimidin-2-yl)-2-azaspiro[3.3]heptan-6-ol] | 30.2 | ≥ 5000 | 40.5 | 1.7 |  | 27 | ≥ 10000 | 36.8 |
| Cc1cc(Nc2ncnc3cnc(N4CC[C@H](C#N)C4)nc23)ccc1Oc1ccc2c(c1)ncn2C [Example 173, (S)-1-(8-((3-methyl-4-((1-methyl-1H-benzo[d]imidazol-5-yl)oxy)phenyl)amino)pyrimido[5,4-d]pyrimidin-2-yl)pyrrolidine-3-carbonitrile] | 50.5 | ≥ 5000 | 21.8 | 1.2 | 4.3 | 22.6 | ≥ 10000 |  |
| Cc1c(Oc2ccc3c(c2)ncn3C)ccc(Nc2ncnc3cnc(N(C)[C@H]4C[C@@](C)(O)C4)nc23)c1F [Example 116, (1s,3s)-3-((8-((2-fluoro-3-methyl-4-((1-methyl-1H-benzo[d]imidazol-5-yl)oxy)phenyl)amino)pyrimido[5,4-d]pyrimidin-2-yl)(methyl)amino)-1-methylcyclobutan-1-ol] | 14.8 | ≥ 5000 | 17.3 | 1.3 | 1.8 | 27.8 | 1170 |  |
| Cn1cnc2cc(Oc3ccc(Nc4ncnc5cnc(N6CC[C@H](CC#N)C6)nc45)cc3Cl)ccc21 [Example 358] | 35.8 | ≥ 5000 | 53.2 | 1.6 | 8.9 | 19.2 | ≥ 10000 |  |
| Cc1cc(Nc2ncnc3cnc(N4C[C@H](O)C5(CC5)C4)nc23)ccc1Oc1ccc2c(c1)ncn2C [Example 212, (R)-5-(8-((3-methyl-4-((1-methyl-1H-benzo[d]imidazol-5-yl)oxy)phenyl)amino)pyrimido[5,4-d]pyrimidin-2-yl)-5-azaspiro[2.4]heptan-7-ol] | 22.9 | ≥ 5000 | 12.8 | 2.8 |  | 10.3 | 2410 | 31.4 |
